Residues, ends and D or L forms follow the SMILES beside them. *: point of attachment. Cbz = O=C(OCc1ccccc1)*; NHOH = ON*
What was measured:
Test in all cases: biochemical
Atroxlysin-I (Atr-I) [1] = biological target: T1, Atroxlysin-I (Atr-I) (Bothrops atrox, UniProt P85420)
Leucurolysin-a (Leuc-a) = Leucurolysin-a (Leuc-a) (Bothrops leucurus, UniProt P84907)
Atroxlysin-I (Atr-I) [2] = biological target: T1, Atroxlysin-I (Atr-I); assay type: binding

T1 sequence (P85420 whole entry, added parts left off): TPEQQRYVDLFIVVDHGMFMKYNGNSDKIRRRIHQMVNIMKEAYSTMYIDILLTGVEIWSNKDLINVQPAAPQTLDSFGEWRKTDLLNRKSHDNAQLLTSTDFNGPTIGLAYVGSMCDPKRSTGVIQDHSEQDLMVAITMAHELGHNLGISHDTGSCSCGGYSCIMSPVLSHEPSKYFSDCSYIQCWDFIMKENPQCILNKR
Sequence of Leucurolysin-a (Leuc-a) (P84907 whole entry, looked up): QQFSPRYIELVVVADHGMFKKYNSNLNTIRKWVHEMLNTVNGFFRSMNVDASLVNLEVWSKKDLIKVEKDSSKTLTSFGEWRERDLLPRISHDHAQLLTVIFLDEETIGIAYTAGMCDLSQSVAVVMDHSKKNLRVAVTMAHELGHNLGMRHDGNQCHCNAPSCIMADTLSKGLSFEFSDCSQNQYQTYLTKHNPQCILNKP

CNC(=O)[C@H](Cc1ccccc1)NC(=O)[C@H](CC(C)C)[C@H](CSc1cccs1)C(=O)NO [BAT, batimastat]
Hill coef. (Atroxlysin-I (Atr-I) [1]): 0.85
IC50 (Atroxlysin-I (Atr-I) [1]): 50 ± 30 nM
Hill coef. (Leucurolysin-a (Leuc-a)): 4.91
IC50 (Leucurolysin-a (Leuc-a)): 12000 ± 1000 nM

CNC(=O)[C@@H](NC(=O)[C@H](CC(C)C)[C@H](O)C(=O)NO)C(C)(C)C [MAR, marimastat]
Hill coef. (Atroxlysin-I (Atr-I) [1]): 2.05
IC50 (Atroxlysin-I (Atr-I) [1]): 80 ± 10 nM
Hill coef. (Leucurolysin-a (Leuc-a)): 0.78
IC50 (Leucurolysin-a (Leuc-a)): 690 ± 20 nM
Ki (Atroxlysin-I (Atr-I) [2]): 60 ± 10 nM
enthalpic contribution (Atroxlysin-I (Atr-I) [2]): -1.5 kcal/mol
entropic contribution (Atroxlysin-I (Atr-I) [2]): 28.2 cal/K/mol

CC(C)C[C@H](NC(=O)[C@@H]1CCCN1C(=O)OCc1ccccc1)C(=O)N[C@@H](C)C(=O)NO [COL, collagenase-I inhibitor] (Cbz-Pro-Leu-Ala-{NHOH})
Hill coef. (Atroxlysin-I (Atr-I) [1]): 2.28
IC50 (Atroxlysin-I (Atr-I) [1]): 8000 ± 2000 nM
Hill coef. (Leucurolysin-a (Leuc-a)): 1.65
IC50 (Leucurolysin-a (Leuc-a)): 6000 ± 2000 nM

CC1(C)SCCN(S(=O)(=O)c2ccc(Oc3ccncc3)cc2)[C@H]1C(=O)NO [PRI, prinomastat]
Hill coef. (Atroxlysin-I (Atr-I) [1]): 0.77
IC50 (Atroxlysin-I (Atr-I) [1]): 160 ± 10 nM
Hill coef. (Leucurolysin-a (Leuc-a)): 1.96
IC50 (Leucurolysin-a (Leuc-a)): 20 ± 10 nM
Ki (Atroxlysin-I (Atr-I) [2]): 70 ± 50 nM
enthalpic contribution (Atroxlysin-I (Atr-I) [2]): -0.8 kcal/mol
entropic contribution (Atroxlysin-I (Atr-I) [2]): 30 cal/K/mol

CC(C)(NS(=O)(=O)c1ccc(Oc2ccc(F)cc2)cc1)C(=O)NO [CP4, CP471474]
Hill coef. (Atroxlysin-I (Atr-I) [1]): 2.37
IC50 (Atroxlysin-I (Atr-I) [1]): 20 ± 10 nM
Hill coef. (Leucurolysin-a (Leuc-a)): 0.55
IC50 (Leucurolysin-a (Leuc-a)): 210 ± 110 nM
Ki (Atroxlysin-I (Atr-I) [2]): 160 ± 10 nM
enthalpic contribution (Atroxlysin-I (Atr-I) [2]): -3.8 kcal/mol
entropic contribution (Atroxlysin-I (Atr-I) [2]): 18.4 cal/K/mol

CNC(=O)[C@H](CCc1ccccc1)NC(=O)[C@H](CC(=O)NO)CC(C)C [MMP, mmp-III inhibitor]
Hill coef. (Atroxlysin-I (Atr-I) [1]): 1.79
IC50 (Atroxlysin-I (Atr-I) [1]): 50 ± 10 nM
Hill coef. (Leucurolysin-a (Leuc-a)): 1.34
IC50 (Leucurolysin-a (Leuc-a)): 360 ± 170 nM
